# Experimental data reported in PMC3001897, “High-Throughput Chemical Screen Identifies a Novel Potent Modulator of Cellular Circadian Rhythms and Reveals CKIα as a Clock Regulatory Kinase” (PLoS Biology, 2010).
# Test system: larval per3-luc zebrafish
# Test: In vivo luminescence rhythms in per3-luc zebrafish
# Conditions: up to 9 µM
# Method: The per3-luc transgenic line was obtained from Zebrafish International Resource Center. Hemizygote larval fish were entrained in 12 h light/12 h dark cycles from day 3 to 6 postfertilization. They were then placed in an individual well of a 96-well white solid-bottom plate with 180 µl of E3 solution (5 mM NaCl, 0.17 mM KCl, 0.33 mM CaCl2, and 0.33 mM MgSO4, pH 7.0) containing 0.5 mM luciferin, 0.013% Amquel Plus Instant Water Detoxifier (Kordon brand; Novalek, Hayward, California, United States), and various concentrations of longdaysin (final 0.1% DMSO). The plate was covered with optically clear film, and the luminescence was recorded every 36 min by using the Tecan luminometer at 25°C. The period parameter was obtained from the luminescence rhythm by using MultiCycle software.
smiles,measurement,setting,value
"CC(C)n1cnc2c(NCc3cccc(C(F)(F)F)c3)ncnc21 [Longdaysin, 9-isopropyl-N-(3-(trifluoromethyl)benzyl)-9H-purin-6-amine]",Effect on body size,1 wk treatment,without affecting body size
same,Period lengthening in vivo,"per3-luc reporter fish, constant darkness",> 10 h
